# In patent publication US12103952B2, “Methods for expressing proteins in axons” (Cornell University, priority 2010, dated 2024):
# Assays:
# Format in all cases: cell-based, rat
# [1] = test system: CREB reporter mRNA translation in DRG axons; experiment: myr-dEGFP3′CREB Sindbis translation reporter in axons; conditions: factor restored after NGF-free media
# From the text: FIGS. 5A-C are results showing NGF-dependent translation of a CREB reporter mRNA in axons. (A) Schematic diagram of the Sindbis viral reporter construct used to monitor CREB translation. The reporter contains a myristoylated, destabilized EGFP (myr-dEGFP) with the 3′UTR of CREB, expressed under control of the Sindbis subgenomic promoter (PSG). (B) E15 DRG explant cultures were infected with Sindbis constructs expressing myr-dEGFP3′CREB on DIV3 and fluorescence (bottom panel) and phase (top panel) images, approximately 1000 μm from the cell body were collected after 24 hours. Fluorescence images are shown in inverted contrast in order to more readily visualize puncta. Scale bar, 25 μm. […] EGFP fluorescence co-localizes with a population of S6-labeled ribosomal clusters. […]
# FIGS. 6A-H are data showing that axonal CREB is specifically translated in response to NGF. […] (B) E15 DRG explant cultures were infected with Sindbis constructs expressing myr-dEGFP3′RhoA or myr-dEGFP3′H1f0 on DIV3 and fluorescence images were collected after 24 h. […] (D) Axons from DIV3 DRGs were analyzed for CREB and mitochondrial localizations by immunofluorescence using CREB-specific and VDAC/porin1-specific antibodies. […] CREB mRNA was detected by FISH using a CREB specific riboprobe. […] (H) Axons of DIV3 DRG explant cultures were analyzed by immunofluorescence for NGF effectors CREB, pTrkA and pErk5 at 3 DIV. […]
# [2] = test system: CRE-dependent transcription; experiment: CRE-luciferase adenovirus reporter in DRG neurons
# 4E-BP1 = experiment: Phospho-4E-BP1 immunofluorescence in axons; conditions: NGF 1 hour after 2 hour NGF-free media
# Experimental: FIGS. 2A-E are results showing that local protein synthesis in axons is required for NGF-dependent survival. (A) Phospho-4E-BP1 levels increase in growth cones in response to NGF treatment. DRG neurons were incubated with NGF-replete or NGF-free media; phospho-4E-BP1 levels in axons were measured by immunofluorescence. Scale bar, 50 μm. (B) Quantification of total and phospho-4EBP1 in (A) p=0.012. Numbers on bars represent n axons per condition. (C) Schematic diagram of compartmented (Campenot) chambers. E15 dissociated DRG neurons are cultured in the cell body compartment and axons grow under a thinly applied silicone grease layer that seals the chamber with the Permanox® plastic culture slide. (D) Application of protein synthesis inhibitors to axons blocks NGF-mediated retrograde survival. Dissociated DRG neurons were grown in compartmentalized chambers, and vehicle or NGF was added to the axon compartment. 1 μM cycloheximide (CHX) or 40 μM anisomycin (Aniso) were added to the axon compartment concurrently with NGF media. Cell body compartments were kept NGF-free during the course of the experiment. Cells crossing the divider were retrogradely labeled with WGA-Alexa555 and only WGA-positive cell bodies were counted in the data set. Survival was assessed by TUNEL assay. […] (E) Quantification of results from (D). *p<0.001. […]
substance,measurement,setting,value
NGF: nerve growth factor,fluorescent myr-dEGFP3′CREB puncta,[1],reappeared following restoration of NGF
same,luciferase levels,[2]; axonal application of NGF,increased luciferase levels
same,luciferase immunofluorescence,"[2]; bath application of NGF, 0-100 ng/ml, 24 hours",dose-dependent increase in luciferase immunofluorescence
same,phosphorylation of 4E-BP1 in axons,4E-BP1,increased phosphorylation of 4E-BP1 at S64 and T69
